According to US6335346B1 (MACEF, priority 1999, dated 2002):

Legend:
[1] = system: chicks of chair label JA657 strain; assay: Hypnotic and sedative activities in chicks (alternate lighting, test between 2.00 pm and 3.00 pm); settings: for ST (sleeping time) / Sedation time (after waking up, Stage 2) / FAT (falling-asleep time): IM; for FAT (falling-asleep time): to the nearest minute
[2] = system: Beagle dogs; assay: Hypnotic activity in Beagle dogs (polygraphic measurement of the conscious and sleeping states); format: in vivo, dog; settings: for Mean duration of the state of consciousness: Consciousness / Mean duration of the state of consciousness: Drowsiness / Mean duration: P.S. (paradoxal sleep) / Mean duration: Slow-wave sleep S1 + S2 / Mean duration: Total sleep / Mean latency time: Drowsiness / Mean latency time: P.S. (paradoxal sleep) / Mean latency time: Slow-wave sleep S1: 7 Beagle dogs, IV single bolus; for Mean duration of the state of consciousness: Consciousness / Mean duration of the state of consciousness: Drowsiness / Mean duration: P.S. (paradoxal sleep) / Mean duration: Slow-wave sleep S1 + S2 / Mean duration: Total sleep: 150 min recording; for Hypnotic power (in words): Beagle dogs, IV, sleep with high proportion of slow waves, consciousness reduced, latencies reduced
Procedure: During each test, the dogs are taken to a recording room in which they are connected to a Schwarzer ED 24 polygraph driven by Brainlab® for Windows® by means of a flexible cable. The dog is then placed in a 0.70×1×0.8 m metal cage in which it stays for 150 minutes.
The test products and the placebo were administered intravenously as a single bolus into the anterior median vein. The recordings are noted in periods of 30 seconds following the five states of vigilance defined by Shelton et al.:
deep slow-wave sleep, and
by examining the amplitude and frequency of the 2 frontal EEG plots (frontal), the EOG plots (bilateral) and the EMG plots (neck muscles) as follows:
Conscious: The dogs may be standing, sitting or lying down, or moving between these positions. Their eyes are open. This state includes all the episodes of multiple voltage and frequency with muscular activity.
Drowsy: The dogs are lying down with the eyes closed for most of the time. The EEG plots show slow-wave cycles (5-7 Hz) without the appearance of spindles. Large-amplitude synchronous slow waves (4-7 Hz) appear on a background of rapid activity. The EMG tends to be reduced compared with the conscious state.
Light sleep (SL1 or S1): The dogs are lying down in the stretched ventral position or, usually, in an incomplete circle. The relaxation is total. The EEG plots are characterized by K complexes and/or spindles. The amplitude increases.
Deep sleep (SL2 or S2): The dogs are lying down, with relaxed muscles. They remain without reaction to moderate stimulations (by sound). The slow delta waves (<4 Hz) with an amplitude of at least 70 μV constitute at least 20% of a period of 30 seconds.
Paradoxal sleep (PS): The dogs are lying down with the eyes closed and occasionally display rapid contractions of the eyelids and/or myoclonia, in particular of the labial extensor muscles. The EEG plots are of low voltage and varied frequencies. The EOG plots show rapid contractions. The EMG plot is of low amplitude, with the exception of the short-lived clonus. A period is classified as paradoxal sleep only if the preceding period is a period of sleep. The end of a period of paradoxal sleep is determined by the appearance of K complexes or spindles, or by the appearance of EMG activity.
The test compounds are administered intravenously by means of a vehicle having the composition: 50/50 (V/V) PEG-400/water for injectable preparations, as a single bolus of 10 ml per 12 kg of live weight.
The placebo consists of the intravenous administration of the vehicle alone, having the composition: 50/50 (V/V) PEG-400/water for injectable preparations, as a single bolus of 10 ml per 12 kg of live weight.
The distribution of the observation time spent in each of the stages of consciousness and sleep, as well as the latency times for onset of the first stages of each type of sleep, are given in Table I.

[3] = 0.5 μmol/100 g, batch means of 3 chicks, limit values if >2 batches
[4] = 1 μmol/100 g, batch means of 3 chicks, limit values if >2 batches
[5] = 2 μmol/100 g, batch means of 3 chicks, limit values if >2 batches

| Compound | ST (sleeping time) [1, 3] | ST (sleeping time) [1, 4] | Sedation time (after waking up, Stage 2) [1, 4] | FAT (falling-asleep time) [1, 4] | ST (sleeping time) [1, 5] | Sedation time (after waking up, Stage 2) [1, 5] | FAT (falling-asleep time) [1, 5] | further results |
| --- | --- | --- | --- | --- | --- | --- | --- | --- |
| COc1ccc2[nH]c3c(c2c1)CCN=C3C [10-METHOXYHARMALAN, 10-methoxy harmalan] |  |  |  |  |  |  |  | ST (sleeping time) ([1]; 1.4 μmol/100 g (3 mg/kg)): 0; Sedation time (after waking up, Stage 2) ([1]; 1.4 μmol/100 g (3 mg/kg)): 0 |
| CN1C(=O)CN=C(c2ccccc2)c2cc(Cl)ccc21 [DIAZEPAM, diazepam] | 10-50 | 24-70 | 17-20 | 2-7 | 81-100 | 14-15 | 2-5 | FAT (falling-asleep time) [1, 3]: 3-6 |
| C=C1c2[nH]c3ccc(OC)cc3c(=O)c2CN1C(C)=O [Example 1, 2-Acetyl-7-methoxy-3-methylene-9-oxo-1,3,4,9-tetrahydropyrrolo[3,4-b]quinoline] |  |  |  |  | 30 | 35 | 10.5 |  |
| CCC1=C2c3[nH]c4ccc(OC)cc4c(=O)c3CN2C(=O)CC1 [Example 4] |  | 30 | 47 | 13 |  |  |  | Mean duration of the state of consciousness: Consciousness ([2]; 1.5 μmol/kg): 115.4 min; Mean duration of the state of consciousness: Drowsiness ([2]; 1.5 μmol/kg): 15.9 min; Mean duration: P.S. (paradoxal sleep) ([2]; 1.5 μmol/kg): 2.4 min; Mean duration: Slow-wave sleep S1 + S2 ([2]; 1.5 μmol/kg): 16.3 min; Mean duration: Total sleep ([2]; 1.5 μmol/kg): 34.6 min; Mean latency time: Drowsiness ([2]; 1.5 μmol/kg): 63.8 min; Mean latency time: P.S. (paradoxal sleep) ([2]; 1.5 μmol/kg): 114.8 min; Mean latency time: Slow-wave sleep S1 ([2]; 1.5 μmol/kg): 84.8 min; Hypnotic power (in words) [2]: marked hypnotic power |
| COc1ccc2[nH]c3c(c(=O)c2c1)CN1C(=O)CCC(c2ccccc2)=C31 [Example 5] |  |  |  |  |  |  |  | Mean duration of the state of consciousness: Consciousness ([2]; 1 μmol/kg): 108.1 min; Mean duration of the state of consciousness: Drowsiness ([2]; 1 μmol/kg): 15.8 min; Mean duration: P.S. (paradoxal sleep) ([2]; 1 μmol/kg): 2.6 min; Mean duration: Slow-wave sleep S1 + S2 ([2]; 1 μmol/kg): 23.4 min; Mean duration: Total sleep ([2]; 1 μmol/kg): 41.9 min; Mean latency time: Drowsiness ([2]; 1 μmol/kg): 51.7 min; Mean latency time: P.S. (paradoxal sleep) ([2]; 1 μmol/kg): 110.7 min; Mean latency time: Slow-wave sleep S1 ([2]; 1 μmol/kg): 69.0 min; Hypnotic power (in words) [2]: marked hypnotic power; ST (sleeping time) ([1]; 0.87 μmol/100 g (3.12 mg/kg)): 36; Sedation time (after waking up, Stage 2) ([1]; 0.87 μmol/100 g (3.12 mg/kg)): 44; FAT (falling-asleep time) ([1]; 0.87 μmol/100 g (3.12 mg/kg)): 10 |
| COc1ccc2[nH]c3c(c(=O)c2c1)CN(C(C)=O)C3C (stereo not drawn) [Example 6, 2-Acetyl-7-methoxy-3-methyl-9-oxo-1,3,4,9-tetrahydropyrrolo[3,4-b]quinoline] |  |  |  |  | 33 | 27 | 15 |  |
| CCC1CCC(=O)N2Cc3c([nH]c4ccc(OC)cc4c3=O)C12 (stereo not drawn) [Example 9] |  | 36 | 44 | 7 |  |  |  |  |
| COc1ccc2c3c([nH]c2c1)C(C)=NCC3 [HARMALIN, harmaline] |  |  |  |  |  |  |  | ST (sleeping time) ([1]; 1.4 μmol/100 g (3 mg/kg)): 0; Sedation time (after waking up, Stage 2) ([1]; 1.4 μmol/100 g (3 mg/kg)): 0 |
| COc1ccc2[nH]cc(CCNC(C)=O)c2c1 [MELATONIN, melatonin] | 0 | 0 | 16-36 |  | 0 | 47-105 |  | Hypnotic activity (in words) ([1]; administration during the daylight phase between 2.00 pm and 3.00 pm): no hypnotic activity |
| CCCC(C)C1(CC)C(=O)NC(=O)NC1=O (stereo not drawn) [PENTOBARBITAL, pentobarbital sodium] | 0 | 36 |  | 13 |  |  |  |  |
